The values below come from patent US7402591B2, “Analgesic compositions containing buprenorphine” (Reckitt Benckiser Healthcare (UK) Limited, priority 1999, dated 2008).

This assay relates to thermal nociceptive threshold (hindpaw withdrawal latency) in rats with peripheral mononeuropathy. The assay is described as follows: Hargreaves paw withdrawal (plantar) test in rats with sciatic nerve ligation neuropathy. The assay is classed as in vivo, rat.

Procedure: The operator positions the I.R. Generator directly beneath the hind paw of the rat and activates both the I.R. Source and a reaction time counter. When the rat feels pain and withdraws its paw, the I.R. Generator is automatically switched off and the timer stops, determining the withdrawal latency.
The testing was carried out on the eighth day following the operative procedure.
In order to determine a baseline for comparison purposes, rats were subjected to the Hargreaves paw withdrawal test before the subcutaneous injection of the various drugs or drug combinations being tested. The rats were then injected subcutaneously with the particular drug or drug combination being tested and the percentage change in time for the rat to withdraw its paw from the thermal stimulation, in comparison with the baseline, was recorded as a percentage in paw withdrawal latency. […]
After 8 days, thermal nociceptive threshold, as determined by hindpaw withdrawal latency, was measured using a plantar test (Ugo Basile, Comero, Italy). […] This initiated a timing circuit which measured the time interval between the application of the light beam and the withdrawal of the hind paw. […]
Paw withdrawal latency was determined before injection and at different times after injection. […]

With `C=CCN1CC[C@]23c4c5ccc(O)c4O[C@H]2C(=O)CC[C@@]3(O)[C@H]1C5` [naloxone, 1-N-allyl-14-hydroxynorhydromorphinone], the “potentiation of sub-clinical doses of buprenorphine” value (Example 1, FIG. 1, low dose naloxone, weight ratios 20:1 and 15:1, subcutaneous, rats n=3) is “can be clearly seen”. For the same compound, the “potentiation of the sub-clinical doses of buprenorphine” value (Example 2, FIG. 2, buprenorphine 2.5 μg/kg co-administered subcutaneously at weight ratios 5:1 to 30:1, rats n=6) is recorded as “can be clearly seen”.
